pIC50: −log10 of the molar value.
Biological target: Recombinant GST-Tie2 (Homo sapiens, UniProt Q02763)
Experiment: Tie2 fluorescence polarization kinase activity assay (TIE2-FP)
Assay type: biochemical
Conditions: 200 μM ATP, 1 nM activated enzyme, 200 μM peptide
Method: Tie2 Fluorescence Polarization Kinase Activity Assay (TIE2-FP).
Activation of Recombinant Tie2 Activation:
Recombinant GST-Tie2 is activated by incubating the enzyme in 20 mM Tris-HCl, pH 7.5, 12 mM MgCl2, 100 mM NaCl, 20 μM sodium vanidate, 1 mM DTT and 300 μM ATP at room temperature for 2 hours. The activation mixture is then passed through a NAP-25 desalting column (Pharmacia Biotech cat. no. 17-0852-02) to remove the free ATP. The activated enzyme is stored as aliquots at −80° C. in 20 mM Tris-HCl, pH 7.5 and 100 mM NaCl.
The final assay conditions are 50 mM HEPES, pH 7.5, 5% DMSO (when screening compounds), 200 μM ATP, 5 mM MgCl2, 1 mM DTT, 50 μM sodium vanidate, 1 nM activated enzyme, and 200 μM peptide. IC50's of compounds are measured under subsaturating ATP (200 μM) and varing concentrations of activated Tie2 and peptide substrate (RFWKYEFWR-OH; MW 1873 Da, TFA salt). Panvera Anti-phosphotyrosine antibody (Cat#P2840) and PTK Green Tracer (Cat#P2842) are used to detect the phosphorylated peptide. Polarization is measured on a TECAN Polarion in 138-second cycles for 30 minutes at room temperature. IC50's are then determined from the % polarization using normal calculation methods.

Sequence of Recombinant GST-Tie2 (Q02763 23-1124): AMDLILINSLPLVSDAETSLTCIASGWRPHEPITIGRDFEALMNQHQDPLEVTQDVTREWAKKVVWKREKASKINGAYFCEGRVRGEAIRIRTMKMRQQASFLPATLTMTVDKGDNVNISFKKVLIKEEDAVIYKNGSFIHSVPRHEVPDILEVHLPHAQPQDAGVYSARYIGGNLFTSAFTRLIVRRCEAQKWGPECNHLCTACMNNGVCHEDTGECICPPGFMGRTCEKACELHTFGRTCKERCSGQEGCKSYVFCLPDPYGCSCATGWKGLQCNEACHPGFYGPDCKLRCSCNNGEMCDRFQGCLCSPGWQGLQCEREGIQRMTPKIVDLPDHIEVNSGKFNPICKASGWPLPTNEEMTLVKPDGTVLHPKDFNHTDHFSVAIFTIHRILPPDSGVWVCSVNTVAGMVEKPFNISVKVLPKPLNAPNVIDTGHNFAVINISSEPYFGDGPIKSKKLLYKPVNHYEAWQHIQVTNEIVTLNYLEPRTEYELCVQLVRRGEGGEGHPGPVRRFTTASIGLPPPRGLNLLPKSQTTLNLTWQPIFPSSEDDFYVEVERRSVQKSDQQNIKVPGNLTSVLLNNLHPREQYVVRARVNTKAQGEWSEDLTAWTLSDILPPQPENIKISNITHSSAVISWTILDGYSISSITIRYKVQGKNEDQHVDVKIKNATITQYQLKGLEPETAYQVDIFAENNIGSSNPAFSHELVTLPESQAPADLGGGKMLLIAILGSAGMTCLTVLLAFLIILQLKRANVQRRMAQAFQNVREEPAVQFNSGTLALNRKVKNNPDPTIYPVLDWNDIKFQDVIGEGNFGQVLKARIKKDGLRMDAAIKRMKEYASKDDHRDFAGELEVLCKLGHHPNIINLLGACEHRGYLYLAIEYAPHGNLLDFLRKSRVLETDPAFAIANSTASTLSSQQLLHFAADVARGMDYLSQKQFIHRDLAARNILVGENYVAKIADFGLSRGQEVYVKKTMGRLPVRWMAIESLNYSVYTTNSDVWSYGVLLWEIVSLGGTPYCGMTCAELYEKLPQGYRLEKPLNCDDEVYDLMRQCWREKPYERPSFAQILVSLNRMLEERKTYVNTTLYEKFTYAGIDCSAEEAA

pIC50: > 7.00
SMILES: NC(=O)c1c(-c2ccc(NC(=O)Nc3cc(C(F)(F)F)ccc3F)cc2)csc1N [Example 1, 2-Amino-4-{4-[3-(2-fluoro-5-trifluoromethyl-phenyl)-ureido]-phenyl}-thiophene-3-carboxylic acid amide]

Reference: patent US7179836B2, “Chemical compounds” (SmithKline Beecham Corporation, priority 2001, dated 2007)
